Results reported in paper PMC11930985 (Nature Communications, 2025).
“Also recorded” adds a separate entry of the source. Like-named read-outs stand apart in the source and are kept apart here.

Tested on: AML/MDS patients
Conditions: for Fatal SAE: Adverse event / Fatal SAE: Grade / Fatal SAE: Relationship to Bemcentinib: per patient
Experimental: Safety assessments including standard clinical laboratory safety tests (hematology, biochemistry, coagulation, and urinalysis), physical examinations, vital signs (blood pressure, heart rate, respiration rate and temperature), and ECOG performance status were performed at baseline and throughout the study. Electrocardiograms were obtained at screening, Cycle 1 Day 1–4, 8, and 15, Cycle 2 Day 1, 8 and 15, at Day 1 of each cycle thereafter, (up to and including Cycle 15), and at Final Study Visit. QT prolongation was assessed using the Fridericia correction […] [34]. Severity of QTcF prolongation was defined as follows: Grade 1: maximum prolongation 450–480 ms; Grade 2: maximum prolongation 481-500 ms; Grade 3: ≥501 ms on at least two separate ECGs; Grade 4: ≥501 ms or >60 ms change from baseline, with Torsades de pointes, polymorphic ventricular tachycardia or signs/symptoms of serious arrythmia; Grade 5: Death.
Adverse events (AEs) were monitored starting at study enrolment until 28 days after end of treatment and graded according to the National Cancer Institute Common Terminology Criteria for Adverse Events (NCI-CTCAE) version 4.0. If drug-related toxicities continued beyond the follow-up period, patients were followed until all drug-related toxicities resolved to grade ≤1, stabilized or returned to baseline.

[1] = DE and LDAC cohorts combined (n = 72)

Nc1nc(Nc2ccc3c(c2)CC[C@@H](N2CCCC2)CC3)nn1-c1cc2c(nn1)-c1ccccc1CCC2 [Bemcentinib]
Fatal SAEs: cerebral hemorrhage [1]: 2 n
Fatal SAEs: pneumonia/fungal pneumonia [1]: 3 n
Fatal SAEs: sepsis/neutropenic sepsis [1]: 4 n
Fatal SAEs (DE cohort): 7
Actinomyces test positive, number of events (E) (human, in vivo): 1
Actinomyces test positive, patients affected (human, in vivo): 1 (2.8) n (%)
Anaemia, number of events (E) (human, in vivo): 4
Anaemia, patients affected (human, in vivo): 4 (11.1) n (%)
Anxiety, number of events (E) (human, in vivo): 2
Anxiety, patients affected (human, in vivo): 2 (5.6) n (%)
Back pain, number of events (E) (human, in vivo): 1
Back pain, patients affected (human, in vivo): 1 (2.8) n (%)
Blood and lymphatic system disorders (System Organ Class), number of events (E) (human, in vivo): 26
Blood and lymphatic system disorders (System Organ Class), patients affected (human, in vivo): 12 (33.3) n (%)
Cardiac disorders (System Organ Class), number of events (E) (human, in vivo): 10
Cardiac disorders (System Organ Class), patients affected (human, in vivo): 4 (11.1) n (%)
Decreased appetite, number of events (E) (human, in vivo): 2
Decreased appetite, patients affected (human, in vivo): 2 (5.6) n (%)
Dehydration, number of events (E) (human, in vivo): 1
Dehydration, patients affected (human, in vivo): 1 (2.8) n (%)
Device related infection, number of events (E) (human, in vivo): 1
Device related infection, patients affected (human, in vivo): 1 (2.8) n (%)
Diarrhoea, number of events (E) (human, in vivo): 6
Diarrhoea, patients affected (human, in vivo): 3 (8.3) n (%)
Dysgeusia, number of events (E) (human, in vivo): 1
Dysgeusia, patients affected (human, in vivo): 1 (2.8) n (%)
Dysphagia, number of events (E) (human, in vivo): 1
Dysphagia, patients affected (human, in vivo): 1 (2.8) n (%)
Dyspnoea exertional, number of events (E) (human, in vivo): 1
Dyspnoea exertional, patients affected (human, in vivo): 1 (2.8) n (%)
Dyspnoea, number of events (E) (human, in vivo): 1
Dyspnoea, patients affected (human, in vivo): 1 (2.8) n (%)
Enterococcal bacteraemia, number of events (E) (human, in vivo): 1
Enterococcal bacteraemia, patients affected (human, in vivo): 1 (2.8) n (%)
Enthesopathy, number of events (E) (human, in vivo): 1
Enthesopathy, patients affected (human, in vivo): 1 (2.8) n (%)
Epistaxis, number of events (E) (human, in vivo): 2
Epistaxis, patients affected (human, in vivo): 1 (2.8) n (%)
Fall, number of events (E) (human, in vivo): 1
Fall, patients affected (human, in vivo): 1 (2.8) n (%)
Fatigue, number of events (E) (human, in vivo): 4
Fatigue, patients affected (human, in vivo): 2 (5.6) n (%)
Gastrointestinal disorders (System Organ Class), number of events (E) (human, in vivo): 18
Gastrointestinal disorders (System Organ Class), patients affected (human, in vivo): 12 (33.3) n (%)
General disorders and administration site conditions (System Organ Class), number of events (E) (human, in vivo): 8
General disorders and administration site conditions (System Organ Class), patients affected (human, in vivo): 6 (16.7) n (%)
General physical health deterioration, number of events (E) (human, in vivo): 3
General physical health deterioration, patients affected (human, in vivo): 3 (8.3) n (%)
Gingivitis, number of events (E) (human, in vivo): 1
Gingivitis, patients affected (human, in vivo): 1 (2.8) n (%)
Haematuria, number of events (E) (human, in vivo): 1
Haematuria, patients affected (human, in vivo): 1 (2.8) n (%)
Hyperglycaemia, number of events (E) (human, in vivo): 4
Hyperglycaemia, patients affected (human, in vivo): 2 (5.6) n (%)
Hyperuricaemia, number of events (E) (human, in vivo): 2
Hyperuricaemia, patients affected (human, in vivo): 2 (5.6) n (%)
Hypoglycaemia, number of events (E) (human, in vivo): 1
Hypoglycaemia, patients affected (human, in vivo): 1 (2.8) n (%)
Hypokalaemia, number of events (E) (human, in vivo): 5
Hypokalaemia, patients affected (human, in vivo): 5 (13.9) n (%)
Hyponatraemia, number of events (E) (human, in vivo): 2
Hyponatraemia, patients affected (human, in vivo): 2 (5.6) n (%)
Hypophosphataemia, number of events (E) (human, in vivo): 3
Hypophosphataemia, patients affected (human, in vivo): 3 (8.3) n (%)
Hypotension, number of events (E) (human, in vivo): 3
Hypotension, patients affected (human, in vivo): 3 (8.3) n (%)
Hypoxia, number of events (E) (human, in vivo): 2
Hypoxia, patients affected (human, in vivo): 2 (5.6) n (%)
Infection, number of events (E) (human, in vivo): 2
Infection, patients affected (human, in vivo): 2 (5.6) n (%)
Infections and infestations (System Organ Class), number of events (E) (human, in vivo): 29
Infections and infestations (System Organ Class), patients affected (human, in vivo): 23 (63.9) n (%)
Injury, poisoning and procedural complications (System Organ Class), number of events (E) (human, in vivo): 1
Injury, poisoning and procedural complications (System Organ Class), patients affected (human, in vivo): 1 (2.8) n (%)
Investigations (System Organ Class), number of events (E) (human, in vivo): 8
Investigations (System Organ Class), patients affected (human, in vivo): 7 (19.4) n (%)
Lactic acidosis, number of events (E) (human, in vivo): 1
Lactic acidosis, patients affected (human, in vivo): 1 (2.8) n (%)
Leukocytosis, number of events (E) (human, in vivo): 1
Leukocytosis, patients affected (human, in vivo): 1 (2.8) n (%)
Melaena, number of events (E) (human, in vivo): 1
Melaena, patients affected (human, in vivo): 1 (2.8) n (%)
Mental status changes, number of events (E) (human, in vivo): 1
Mental status changes, patients affected (human, in vivo): 1 (2.8) n (%)
Metabolism and nutrition disorders (System Organ Class), number of events (E) (human, in vivo): 21
Metabolism and nutrition disorders (System Organ Class), patients affected (human, in vivo): 14 (38.9) n (%)
Musculoskeletal and connective tissue disorders (System Organ Class), number of events (E) (human, in vivo): 4
Musculoskeletal and connective tissue disorders (System Organ Class), patients affected (human, in vivo): 2 (5.6) n (%)
Nausea, number of events (E) (human, in vivo): 3
Nausea, patients affected (human, in vivo): 3 (8.3) n (%)
Nervous system disorders (System Organ Class), number of events (E) (human, in vivo): 3
Nervous system disorders (System Organ Class), patients affected (human, in vivo): 3 (8.3) n (%)
Neutropenia, number of events (E) (human, in vivo): 3
Neutropenia, patients affected (human, in vivo): 2 (5.6) n (%)
Number of TEAE, number of events (E) (human, in vivo): 148
Number of TEAE, patients affected (human, in vivo): 35 (97.2) n (%)
Oesophagitis, number of events (E) (human, in vivo): 1
Oesophagitis, patients affected (human, in vivo): 1 (2.8) n (%)
Osteitis, number of events (E) (human, in vivo): 1
Osteitis, patients affected (human, in vivo): 1 (2.8) n (%)
Patients with dose interruptions due to adverse events (human, in vivo): 17
Patients with dose reductions (human, in vivo): 3
Pharyngitis, number of events (E) (human, in vivo): 1
Pharyngitis, patients affected (human, in vivo): 1 (2.8) n (%)
Pneumonia, number of events (E) (human, in vivo): 8
Pneumonia, patients affected (human, in vivo): 8 (22.2) n (%)
Psychiatric disorders (System Organ Class), number of events (E) (human, in vivo): 3
Psychiatric disorders (System Organ Class), patients affected (human, in vivo): 3 (8.3) n (%)
Pulmonary congestion, number of events (E) (human, in vivo): 1
Pulmonary congestion, patients affected (human, in vivo): 1 (2.8) n (%)
Rash erythematous, number of events (E) (human, in vivo): 1
Rash erythematous, patients affected (human, in vivo): 1 (2.8) n (%)
Renal and urinary disorders (System Organ Class), number of events (E) (human, in vivo): 4
Renal and urinary disorders (System Organ Class), patients affected (human, in vivo): 2 (5.6) n (%)
Respiratory failure, number of events (E) (human, in vivo): 1
Respiratory failure, patients affected (human, in vivo): 1 (2.8) n (%)
Respiratory, thoracic and mediastinal disorders (System Organ Class), number of events (E) (human, in vivo): 9
Respiratory, thoracic and mediastinal disorders (System Organ Class), patients affected (human, in vivo): 6 (16.7) n (%)
Sepsis, number of events (E) (human, in vivo): 3
Sepsis, patients affected (human, in vivo): 3 (8.3) n (%)
Skin and subcutaneous tissue disorders (System Organ Class), number of events (E) (human, in vivo): 1
Skin and subcutaneous tissue disorders (System Organ Class), patients affected (human, in vivo): 1 (2.8) n (%)
Stomatitis, number of events (E) (human, in vivo): 1
Stomatitis, patients affected (human, in vivo): 1 (2.8) n (%)
Streptococcal bacteraemia, number of events (E) (human, in vivo): 1
Streptococcal bacteraemia, patients affected (human, in vivo): 1 (2.8) n (%)
Supraventricular tachycardia, number of events (E) (human, in vivo): 1
Supraventricular tachycardia, patients affected (human, in vivo): 1 (2.8) n (%)
Syncope, number of events (E) (human, in vivo): 1
Syncope, patients affected (human, in vivo): 1 (2.8) n (%)
TEAE leading to Discontinuation (human, in vivo): 4 n (%)
Thrombocytopenia, number of events (E) (human, in vivo): 7
Thrombocytopenia, patients affected (human, in vivo): 5 (13.9) n (%)
Toothache, number of events (E) (human, in vivo): 1
Toothache, patients affected (human, in vivo): 1 (2.8) n (%)
Urethral haemorrhage, number of events (E) (human, in vivo): 1
Urethral haemorrhage, patients affected (human, in vivo): 1 (2.8) n (%)
Urinary incontinence, number of events (E) (human, in vivo): 1
Urinary incontinence, patients affected (human, in vivo): 1 (2.8) n (%)
Vascular disorders (System Organ Class), number of events (E) (human, in vivo): 3
Vascular disorders (System Organ Class), patients affected (human, in vivo): 3 (8.3) n (%)
Viral infection, number of events (E) (human, in vivo): 1
Viral infection, patients affected (human, in vivo): 1 (2.8) n (%)
Vomiting, number of events (E) (human, in vivo): 2
Vomiting, patients affected (human, in vivo): 2 (5.6) n (%)
Oral pain, number of events (E) (human, in vivo, po): 1
Oral pain, patients affected (human, in vivo, po): 1 (2.8) n (%)
Eye toxicity of grade ≥3 (in vivo): Only a single event
Retinal toxicities (in vivo): no evidence for retinal toxicities
Tolerability (in vivo): well-tolerated
Fatal SAE: Adverse event (Dose escalation 400 mg/100 mg): Neutropenic sepsis
Fatal SAE: Grade (Dose escalation 400 mg/100 mg): 5
Fatal SAE: Relationship to Bemcentinib (Dose escalation 400 mg/100 mg): Unrelated
Fatal SAE: Adverse event (Dose escalation 400 mg/200 mg): Multi-organ failure; also recorded: Pneumonia fungal; also recorded: Cerebral haemorrhage
Fatal SAE: Grade (Dose escalation 400 mg/200 mg): 5
Fatal SAE: Relationship to Bemcentinib (Dose escalation 400 mg/200 mg): Unrelated; also recorded: Unlikely related
Fatal SAE: Adverse event (Dose escalation 600 mg/200 mg): Pneumonia; also recorded: Sepsis
Fatal SAE: Grade (Dose escalation 600 mg/200 mg): 5
Fatal SAE: Relationship to Bemcentinib (Dose escalation 600 mg/200 mg): Unrelated
